These results are taken from ChEMBL document CHEMBL1134725, “2-(Anilinomethyl)imidazolines as alpha(1)-adrenoceptor agonists: the identification of alpha(1A) subtype selective 2'-carboxylic acid esters and amides” (Bioorg Med Chem Lett, 2001).

Assay [1] has as its target T1, Alpha-1A adrenergic receptor (Homo sapiens) (UniProt P35348).
T1 sequence (whole entry): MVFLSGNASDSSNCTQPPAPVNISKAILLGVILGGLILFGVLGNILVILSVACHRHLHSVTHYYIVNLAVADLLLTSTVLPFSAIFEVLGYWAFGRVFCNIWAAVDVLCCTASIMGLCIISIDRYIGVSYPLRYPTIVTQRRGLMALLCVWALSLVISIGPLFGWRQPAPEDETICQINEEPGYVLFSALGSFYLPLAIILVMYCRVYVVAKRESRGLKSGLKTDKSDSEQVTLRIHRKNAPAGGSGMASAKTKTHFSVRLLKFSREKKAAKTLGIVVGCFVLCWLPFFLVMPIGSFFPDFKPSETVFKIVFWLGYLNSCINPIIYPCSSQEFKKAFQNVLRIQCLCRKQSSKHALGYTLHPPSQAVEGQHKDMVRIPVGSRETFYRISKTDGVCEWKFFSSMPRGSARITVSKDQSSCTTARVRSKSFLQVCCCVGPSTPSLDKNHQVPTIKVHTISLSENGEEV
Kind of assay: Efficacy against alpha 1A adrenoceptor in human expressed as phenylephrine response at the dose of 40 uM. The format is functional.

The target in assay [2] is T2, Alpha-1A adrenergic receptor (Homo sapiens, UniProt P35348).
T2 sequence (P35348 whole entry): T1 sequence (whole entry)
Kind of assay: Agonist potency against cloned human alpha 1A adrenoceptor expressed in rat-1 fibroblasts. The format is functional.

The target in assay [3] is T3, Alpha-1B adrenergic receptor (Homo sapiens) (UniProt P35368).
T3 sequence (whole entry): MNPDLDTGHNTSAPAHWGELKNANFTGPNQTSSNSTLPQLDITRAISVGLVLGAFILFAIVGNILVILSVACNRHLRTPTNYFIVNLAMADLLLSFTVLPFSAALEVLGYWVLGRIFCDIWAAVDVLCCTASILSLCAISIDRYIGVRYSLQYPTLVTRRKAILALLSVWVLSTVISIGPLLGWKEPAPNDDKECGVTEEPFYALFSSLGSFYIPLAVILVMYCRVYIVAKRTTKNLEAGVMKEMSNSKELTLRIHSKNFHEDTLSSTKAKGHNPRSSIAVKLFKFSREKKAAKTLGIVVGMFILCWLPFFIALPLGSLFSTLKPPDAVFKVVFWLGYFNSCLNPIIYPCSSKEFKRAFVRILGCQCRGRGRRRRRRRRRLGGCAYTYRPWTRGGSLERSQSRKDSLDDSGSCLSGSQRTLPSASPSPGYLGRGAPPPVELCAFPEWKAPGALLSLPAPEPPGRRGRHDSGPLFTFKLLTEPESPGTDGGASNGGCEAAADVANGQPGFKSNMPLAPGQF
Description: Efficacy against alpha 1B-adrenoceptor in human expressed as phenylephrine response at the dose of 40 uM. The class given is functional.

Assay [4] has as its target T4, Alpha-1D adrenergic receptor (Homo sapiens) (UniProt P25100).
T4 sequence (whole entry): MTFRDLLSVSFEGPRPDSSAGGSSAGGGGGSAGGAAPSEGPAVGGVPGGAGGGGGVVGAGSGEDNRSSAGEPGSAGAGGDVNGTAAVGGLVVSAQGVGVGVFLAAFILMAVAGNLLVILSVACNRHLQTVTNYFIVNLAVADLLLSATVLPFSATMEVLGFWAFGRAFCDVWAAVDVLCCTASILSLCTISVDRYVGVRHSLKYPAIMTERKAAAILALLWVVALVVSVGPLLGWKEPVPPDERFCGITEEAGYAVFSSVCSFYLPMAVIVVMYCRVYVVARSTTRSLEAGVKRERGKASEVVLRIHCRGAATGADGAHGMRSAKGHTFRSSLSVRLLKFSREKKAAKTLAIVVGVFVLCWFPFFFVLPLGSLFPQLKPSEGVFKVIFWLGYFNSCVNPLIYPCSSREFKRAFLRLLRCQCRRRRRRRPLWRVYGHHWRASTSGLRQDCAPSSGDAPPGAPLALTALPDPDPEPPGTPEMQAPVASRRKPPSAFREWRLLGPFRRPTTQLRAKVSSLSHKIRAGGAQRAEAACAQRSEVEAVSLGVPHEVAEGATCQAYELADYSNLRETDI
Description: Tested for efficacy against alpha 1D-adrenoceptor in human expressed as phenylephrine response at the dose of 40 uM. The format is functional.

In assay [5] the target is T5, Alpha-1D adrenergic receptor (Homo sapiens, UniProt P25100).
T5 sequence (P25100 whole entry): T4 sequence (whole entry)
Kind of assay: Potency against cloned human alpha 1D-adrenoceptor expressed in rat-1 fibroblasts. The class given is functional.

In assay [6] the target is T6, Alpha-1B adrenergic receptor (Homo sapiens, UniProt P35368).
T6 sequence (P35368 whole entry): T3 sequence (whole entry)
Description: Potency against cloned human alpha 1B adrenoceptor expressed in rat-1 fibroblasts. The class given is functional.

Assay [7] addresses T5, Alpha-1D adrenergic receptor. Kind of assay: Concentration required for 50% inhibition of binding against human Alpha-1D adrenergic receptor.
Assay [8] has as its target T2, Alpha-1A adrenergic receptor. Kind of assay: Concentration required for 50% inhibition of binding against Alpha-1A adrenergic receptor in human.
Assay [9] has as its target T6, Alpha-1B adrenergic receptor. Description: Concentration required for 50% inhibition of binding against human Alpha-1B adrenergic receptor.

For the compound `CC(C)CNC(=O)c1ccccc1NCC1=NCCN1`, the Max in [1] amounted to 58%; in assay [3] it was 90%; in [4] it was 31%. For the same compound, the figures for the EC50 in assay [2], in [5] and in assay [6] were 79.4 nM, 15.8 nM and 12.6 nM, respectively.
`c1ccc(C2CC2)c(OCC2=NCCN2)c1` [CIRAZOLINE]: the Max in [1] came to 93%; in [3] it was 72%; in assay [4], 31%. Besides, the EC50 in [2] is 12.6 nM; in assay [6], 63.1 nM.
With `CC(C)(C)OC(=O)c1ccccc1NCC1=NCCN1`, the Max in assay [1] worked out at 96%; in assay [3], 81%. In addition, the EC50 was 7.94 nM in assay [2], above 5010 nM in [5] and 63.1 nM in assay [6].
In turn, `CCC(C)NC(=O)c1ccccc1NCC1=NCCN1` (configuration not stated) returned a Max in assay [1] of 82%. The EC50 is 501 nM in assay [2], above 5010 nM in assay [5] and above 5010 nM in assay [6].
Regarding `CCNC(=O)c1ccccc1NCC1=NCCN1`, the figures for the Max in assay [1], in assay [3] and in assay [4] were 102%, 64% and 33%, respectively. The EC50 was 12.6 nM in assay [2], 79.4 nM in [5] and 200 nM in [6].
`CCCN(CC)C(=O)c1ccccc1NCC1=NCCN1`: the Max in assay [1] stood at 115%. In addition, the EC50 in assay [2] is 100 nM; in assay [5], above 5010 nM; in [6], above 5010 nM.
On to `CCN(CC)C(=O)c1ccccc1NCC1=NCCN1`, for which the Max in assay [1] is 105%; in [3], 32%. For the same compound, the EC50 in [2] was 31.6 nM; in [5], above 5010 nM; in assay [6], 2000 nM. In addition, the IC50 in [7] is 6610 nM; in assay [8], 851 nM; in assay [9], 5890 nM.
Consider `O=C(OC1CCCCC1)c1ccccc1NCC1=NCCN1`, for which the EC50 in [2], in assay [5] and in assay [6] was above 5010 nM in each case.
Take `CCCNC(=O)c1ccccc1NCC1=NCCN1`: the values for the Max in assay [1], in assay [3] and in assay [4] were 104%, 77% and 69%, respectively. Besides, the concentration giving a half-maximal response (EC50) was 7.94 nM in [2], 158 nM in assay [5] and 79.4 nM in [6].
`Cc1cc(C(C)(C)C)c(O)c(C)c1CC1=NCCN1`: the Max in [1] amounted to 74%.
`CC(C)COC(=O)c1ccccc1NCC1=NCCN1`: the Max is 68% in assay [1], 90% in [3] and 59% in [4]. Also, the EC50 in [2] is 501 nM; in assay [5] it was 251 nM; in [6], 79.4 nM.
Regarding `CC(C)OC(=O)c1ccccc1NCC1=NCCN1`, the Max in assay [1] is 100%. The figures for the EC50 in [2], in [5] and in assay [6] were 3.16 nM, above 5010 nM and above 5010 nM, respectively. Further, the results for the IC50 in [7], in assay [8] and in assay [9] were 2000 nM, 224 nM and 1780 nM, respectively.
As for `CCN(C)C(=O)c1ccccc1NCC1=NCCN1`, the Max in assay [1] is 105%; in [3] it was 98%; in [4], 69%. Also, the EC50 is 50.1 nM in assay [2], 631 nM in [5] and 251 nM in [6]. The IC50 is 6760 nM in assay [7], 2040 nM in assay [8] and 10500 nM in [9].
For the compound `c1ccc2c(CC3=NCCN3)cccc2c1` [NAPHAZOLINE], in assay [1], the Max stood at 72%. Moreover, the EC50 was 63.1 nM in [2], above 5010 nM in assay [5] and above 5010 nM in assay [6].
As to `COC(=O)c1ccccc1NCC1=NCCN1`, the Max in assay [1] is 110%; in assay [3] it was 107%; in assay [4], 80%. For the same compound, the results for the EC50 in [2], in assay [5] and in assay [6] were 0.794 nM, 0.501 nM and 0.398 nM, respectively.
As for `O=C(NC1CCC1)c1ccccc1NCC1=NCCN1`, the EC50 in assay [2], in [5] and in assay [6] was above 5010 nM each time.
Consider `CCC(CC)OC(=O)c1ccccc1NCC1=NCCN1`, for which, in assay [1], the Max was 94%. The EC50 in assay [2] is 20 nM; in assay [5], above 5010 nM; in assay [6] it was above 5010 nM.
As to `CCOC(=O)c1ccccc1NCC1=NCCN1`, the Max in assay [1] was 104%; in assay [3], 105%; in assay [4] it was 41%. The EC50 is 12.6 nM in [2], 63.1 nM in assay [5] and 158 nM in assay [6].
Turning to `CN(C)C(=O)c1ccccc1NCC1=NCCN1`, the Max worked out at 104% in assay [1], 93% in [3] and 58% in [4]. Besides, the EC50 is 20 nM in assay [2], 200 nM in assay [5] and 79.4 nM in [6].
As to `CC(C)NC(=O)c1ccccc1NCC1=NCCN1`, the values for the Max in [1], in [3] and in assay [4] were 102%, 95% and 59%, respectively. The EC50 was 50.1 nM in assay [2], 316 nM in [5] and 126 nM in assay [6].
With `O=C(NC1CCCC1)c1ccccc1NCC1=NCCN1`, the EC50 in [2], in assay [5] and in [6] was above 5010 nM throughout.
`CCC(C)OC(=O)c1ccccc1NCC1=NCCN1` (configuration not stated) gave a Max in assay [1] of 96%. Moreover, the EC50 in [2] was 1.26 nM; in [5], above 5010 nM; in [6] it was above 5010 nM.
As for `CNC(=O)c1ccccc1NCC1=NCCN1`, the Max in assay [1] stood at 104%; in assay [3], 99%; in assay [4], 115%. Also, the EC50 in assay [2] was 2.51 nM; in [5] it was 10 nM; in [6] it was 1.58 nM. The values for the IC50 in assay [7], in assay [8] and in assay [9] were 89.1 nM, 214 nM and 692 nM, respectively.
In the case of `O=C(c1ccccc1NCC1=NCCN1)N1CCCC1`, the Max was 105% in [1] and 79% in assay [3]. Further, the values for the EC50 in assay [2], in assay [5] and in assay [6] were 126 nM, above 5010 nM and 316 nM, respectively.
As to `CCCCOC(=O)c1ccccc1NCC1=NCCN1`, the figures for the Max in [1], in assay [3] and in assay [4] were 114%, 63% and 31%, respectively. Moreover, the EC50 in [2] is 10 nM; in assay [5], 15.8 nM; in [6], 25.1 nM.
Take `CCCCNC(=O)c1ccccc1NCC1=NCCN1`: the Max in assay [1] came out at 103%. In addition, the EC50 in assay [2] is 20 nM; in assay [5], above 5010 nM; in assay [6] it was above 5010 nM. The IC50 is 1480 nM in assay [7], 468 nM in assay [8] and 1950 nM in assay [9].
`O=C(OC1CCCC1)c1ccccc1NCC1=NCCN1` displayed a Max in [1] of 58%. The EC50 is 39.8 nM in assay [2], above 5010 nM in assay [5] and above 5010 nM in assay [6].
As to `O=C(c1ccccc1NCC1=NCCN1)N1CCCCC1`, the results for the Max in [1], in [3] and in assay [4] were 105%, 106% and 88%, respectively. The values for the EC50 in [2], in assay [5] and in [6] were 398 nM, 398 nM and 79.4 nM, respectively.
For the compound `O=C(NC1CC1)c1ccccc1NCC1=NCCN1`, the figures for the Max in assay [1] and in assay [3] were 99% and 50%, respectively. Also, the values for the EC50 in assay [2], in assay [5] and in assay [6] were 15.8 nM, above 5010 nM and 251 nM, respectively. The results for the IC50 in assay [7], in [8] and in assay [9] were 1700 nM, 1050 nM and 2240 nM, respectively.
